Assay results reported in PubChem BioAssay AID1918955 (Molecular Pharmacology Branch, DTP, NCI, 2023).
pIC50: −log10 of the molar value.

System: NCI/ADR-RES complex spheroid viability
Assay: Anticancer human tumor NCI/ADR-RES cell line growth inhibition;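 on viability, T/C: 100% = DMSO vehicle treated spheroids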
Settings: for pIC50: curve of first compound; for viability, T/C: stronger effect = lower value
In short: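 Complex spheroids of tumor cells with HUVEC and human MSCs, exposed to iadademstat combined with other agents. Each agent tested in half-log steps from near clinical Cmax (else 10 microM top), DMSO ≤0.25%.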

[1] = second compound 0.1 µM, first compound 0.000316 µM
[2] = second compound 0.1 µM, first compound 0.001 µM
[3] = second compound 0.1 µM, first compound 0.00316 µM
[4] = second compound 0.1 µM, first compound 0.01 µM
[5] = second compound 0.1 µM, first compound 0.0316 µM
[6] = second compound 0.1 µM, first compound 0.1 µM
[7] = second compound 0.316 µM, first compound 0.000316 µM
[8] = second compound 0.316 µM, first compound 0.001 µM
[9] = second compound 0.316 µM, first compound 0.00316 µM
[10] = second compound 0.316 µM, first compound 0.01 µM
[11] = second compound 0.316 µM, first compound 0.0316 µM
[12] = second compound 0.316 µM, first compound 0.1 µM
[13] = second compound 1 µM, first compound 0.000316 µM
[14] = second compound 1 µM, first compound 0.001 µM
[15] = second compound 1 µM, first compound 0.00316 µM
[16] = second compound 1 µM, first compound 0.01 µM
[17] = second compound 1 µM, first compound 0.0316 µM
[18] = second compound 1 µM, first compound 0.1 µM
[19] = second compound 3.16 µM, first compound 0.000316 µM
[20] = second compound 3.16 µM, first compound 0.001 µM
[21] = second compound 3.16 µM, first compound 0.00316 µM
[22] = second compound 3.16 µM, first compound 0.01 µM
[23] = second compound 3.16 µM, first compound 0.0316 µM
[24] = second compound 3.16 µM, first compound 0.1 µM
[25] = second compound 10 µM, first compound 0.000316 µM
[26] = second compound 10 µM, first compound 0.001 µM
[27] = second compound 10 µM, first compound 0.00316 µM
[28] = second compound 10 µM, first compound 0.01 µM
[29] = second compound 10 µM, first compound 0.0316 µM
[30] = second compound 10 µM, first compound 0.1 µM
[31] = second compound 0.1 µM, first compound 0.00949 µM
[32] = second compound 0.1 µM, first compound 0.03 µM
[33] = second compound 0.1 µM, first compound 0.0949 µM
[34] = second compound 0.1 µM, first compound 0.3 µM
[35] = second compound 0.1 µM, first compound 0.949 µM
[36] = second compound 0.1 µM, first compound 3 µM
[37] = second compound 0.316 µM, first compound 0.00949 µM
[38] = second compound 0.316 µM, first compound 0.03 µM
[39] = second compound 0.316 µM, first compound 0.0949 µM
[40] = second compound 0.316 µM, first compound 0.3 µM
[41] = second compound 0.316 µM, first compound 0.949 µM
[42] = second compound 0.316 µM, first compound 3 µM
[43] = second compound 1 µM, first compound 0.00949 µM
[44] = second compound 1 µM, first compound 0.03 µM
[45] = second compound 1 µM, first compound 0.0949 µM
[46] = second compound 1 µM, first compound 0.3 µM
[47] = second compound 1 µM, first compound 0.949 µM
[48] = second compound 1 µM, first compound 3 µM
[49] = second compound 3.16 µM, first compound 0.00949 µM
[50] = second compound 3.16 µM, first compound 0.03 µM
[51] = second compound 3.16 µM, first compound 0.0949 µM
[52] = second compound 3.16 µM, first compound 0.3 µM
[53] = second compound 3.16 µM, first compound 0.949 µM
[54] = second compound 3.16 µM, first compound 3 µM
[55] = second compound 10 µM, first compound 0.00949 µM
[56] = second compound 10 µM, first compound 0.03 µM
[57] = second compound 10 µM, first compound 0.0949 µM
[58] = second compound 10 µM, first compound 0.3 µM
[59] = second compound 10 µM, first compound 0.949 µM
[60] = second compound 10 µM, first compound 3 µM

CC(C)CC(NC(=O)C(Cc1ccccc1)NC(=O)c1cnccn1)B(O)O (stereo not given) + NC1CCC(NC2CC2c2ccccc2)CC1
pIC50 (second compound 0.1 µM): 7.99
pIC50 (second compound 0.316 µM): 7.92
pIC50 (second compound 1 µM): 8.03
pIC50 (second compound 3.16 µM): 8.03
pIC50 (second compound 10 µM): 8.18
viability, T/C [1]: 103%
viability, T/C [2]: 110%
viability, T/C [3]: 92.4%
viability, T/C [4]: 51.5%
viability, T/C [5]: 10.4%
viability, T/C [6]: 4%
viability, T/C [7]: 111%
viability, T/C [8]: 101%
viability, T/C [9]: 100%
viability, T/C [10]: 58.1%
viability, T/C [11]: 9.17%
viability, T/C [12]: 0.68%
viability, T/C [13]: 104%
viability, T/C [14]: 98.4%
viability, T/C [15]: 98.7%
viability, T/C [16]: 46.7%
viability, T/C [17]: 8.19%
viability, T/C [18]: 0.58%
viability, T/C [19]: 95.9%
viability, T/C [20]: 97.1%
viability, T/C [21]: 86.1%
viability, T/C [22]: 48.3%
viability, T/C [23]: 7.8%
viability, T/C [24]: 0.14%
viability, T/C [25]: 94.1%
viability, T/C [26]: 85.4%
viability, T/C [27]: 82.6%
viability, T/C [28]: 31.4%
viability, T/C [29]: 8.41%
viability, T/C [30]: 0.25%

CC(C)CC(NC(=O)CNC(=O)c1cc(Cl)ccc1Cl)B1OC(=O)CC(CC(=O)O)(C(=O)O)O1 (stereo not given) + NC1CCC(NC2CC2c2ccccc2)CC1
pIC50 (second compound 0.1 µM): 7.54
pIC50 (second compound 0.316 µM): 7.54
pIC50 (second compound 1 µM): 7.56
pIC50 (second compound 3.16 µM): 7.68
pIC50 (second compound 10 µM): 7.85
viability, T/C [1]: 104%
viability, T/C [2]: 106%
viability, T/C [3]: 107%
viability, T/C [4]: 90.4%
viability, T/C [5]: 46.6%
viability, T/C [6]: 8.2%
viability, T/C [7]: 105%
viability, T/C [8]: 109%
viability, T/C [9]: 103%
viability, T/C [10]: 92%
viability, T/C [11]: 46.2%
viability, T/C [12]: 4.8%
viability, T/C [13]: 100%
viability, T/C [14]: 102%
viability, T/C [15]: 102%
viability, T/C [16]: 91.1%
viability, T/C [17]: 44.2%
viability, T/C [18]: 2.51%
viability, T/C [19]: 92.3%
viability, T/C [20]: 98.3%
viability, T/C [21]: 104%
viability, T/C [22]: 83.5%
viability, T/C [23]: 30.1%
viability, T/C [24]: 3.89%
viability, T/C [25]: 91.4%
viability, T/C [26]: 89.2%
viability, T/C [27]: 87.8%
viability, T/C [28]: 62.1%
viability, T/C [29]: 21%
viability, T/C [30]: 4.15%

COc1cc(Nc2ncc3c(n2)-c2ccc(Cl)cc2C(c2c(F)cccc2OC)=NC3)ccc1C(=O)O + NC1CCC(NC2CC2c2ccccc2)CC1
pIC50 (second compound 0.1 µM): 7.68
pIC50 (second compound 0.316 µM): 7.67
pIC50 (second compound 1 µM): 7.76
pIC50 (second compound 3.16 µM): 7.78
pIC50 (second compound 10 µM): 7.79
viability, T/C [3]: 92%
viability, T/C [4]: 71%
viability, T/C [5]: 38%
viability, T/C [6]: 23.2%
viability, T/C (second compound 0.1 µM, first compound 0.316 µM): 18.2%
viability, T/C (second compound 0.1 µM, first compound 1 µM): 20.5%
viability, T/C [9]: 92%
viability, T/C [10]: 75%
viability, T/C [11]: 37.1%
viability, T/C [12]: 18.1%
viability, T/C (second compound 0.316 µM, first compound 0.316 µM): 20%
viability, T/C (second compound 0.316 µM, first compound 1 µM): 17.4%
viability, T/C [15]: 90.4%
viability, T/C [16]: 61%
viability, T/C [17]: 40.2%
viability, T/C [18]: 18.6%
viability, T/C (second compound 1 µM, first compound 0.316 µM): 16.6%
viability, T/C (second compound 1 µM, first compound 1 µM): 18.8%
viability, T/C [21]: 90.6%
viability, T/C [22]: 63.4%
viability, T/C [23]: 32.7%
viability, T/C [24]: 19.1%
viability, T/C (second compound 3.16 µM, first compound 0.316 µM): 12.3%
viability, T/C (second compound 3.16 µM, first compound 1 µM): 12.7%
viability, T/C [27]: 82%
viability, T/C [28]: 63.7%
viability, T/C [29]: 30.3%
viability, T/C [30]: 17.5%
viability, T/C (second compound 10 µM, first compound 0.316 µM): 9.8%
viability, T/C (second compound 10 µM, first compound 1 µM): 8.65%

Cn1ncnc1C1c2n[nH]c(=O)c3cc(F)cc(c23)NC1c1ccc(F)cc1 (stereo not given) + NC1CCC(NC2CC2c2ccccc2)CC1
pIC50 (second compound 0.1 µM): < 7.00
pIC50 (second compound 0.316 µM): < 7.00
pIC50 (second compound 1 µM): < 7.00
pIC50 (second compound 3.16 µM): < 7.00
pIC50 (second compound 10 µM): < 7.00
viability, T/C [1]: 110%
viability, T/C [2]: 108%
viability, T/C [3]: 110%
viability, T/C [4]: 103%
viability, T/C [5]: 103%
viability, T/C [6]: 96.6%
viability, T/C [7]: 109%
viability, T/C [8]: 106%
viability, T/C [9]: 102%
viability, T/C [10]: 102%
viability, T/C [11]: 104%
viability, T/C [12]: 103%
viability, T/C [13]: 105%
viability, T/C [14]: 109%
viability, T/C [15]: 105%
viability, T/C [16]: 104%
viability, T/C [17]: 102%
viability, T/C [18]: 98%
viability, T/C [19]: 106%
viability, T/C [20]: 109%
viability, T/C [21]: 104%
viability, T/C [22]: 109%
viability, T/C [23]: 101%
viability, T/C [24]: 105%
viability, T/C [25]: 89.4%
viability, T/C [26]: 95.9%
viability, T/C [27]: 102%
viability, T/C [28]: 92.9%
viability, T/C [29]: 89.8%
viability, T/C [30]: 84.5%

NS(=O)(=O)OCC1CC(n2ccc3c(NC4CCc5ccccc54)ncnc32)CC1O (stereo not given) + NC1CCC(NC2CC2c2ccccc2)CC1
pIC50 (second compound 0.1 µM): 6.01
pIC50 (second compound 0.316 µM): 6.05
pIC50 (second compound 1 µM): 6.13
pIC50 (second compound 3.16 µM): 6.18
pIC50 (second compound 10 µM): 6.45
viability, T/C [31]: 99.1%
viability, T/C [32]: 98.9%
viability, T/C [33]: 84.9%
viability, T/C [34]: 73.8%
viability, T/C [35]: 52.3%
viability, T/C [36]: 14.4%
viability, T/C [37]: 99.2%
viability, T/C [38]: 92.4%
viability, T/C [39]: 87.5%
viability, T/C [40]: 74.7%
viability, T/C [41]: 47.9%
viability, T/C [42]: 15.7%
viability, T/C [43]: 109%
viability, T/C [44]: 95.6%
viability, T/C [45]: 86.5%
viability, T/C [46]: 70.3%
viability, T/C [47]: 43.3%
viability, T/C [48]: 16.8%
viability, T/C [49]: 93.6%
viability, T/C [50]: 93%
viability, T/C [51]: 86.2%
viability, T/C [52]: 70.8%
viability, T/C [53]: 40.4%
viability, T/C [54]: 20.4%
viability, T/C [55]: 87.3%
viability, T/C [56]: 86.8%
viability, T/C [57]: 73.8%
viability, T/C [58]: 50.5%
viability, T/C [59]: 31.3%
viability, T/C [60]: 7.61%

O=C(C=Cc1cccc(S(=O)(=O)Nc2ccccc2)c1)NO + NC1CCC(NC2CC2c2ccccc2)CC1
pIC50 (second compound 0.1 µM): 7.09
pIC50 (second compound 0.316 µM): 7.11
pIC50 (second compound 1 µM): 7.11
pIC50 (second compound 3.16 µM): 7.12
pIC50 (second compound 10 µM): 7.53
viability, T/C [31]: 99.7%
viability, T/C [32]: 85.7%
viability, T/C [33]: 39.4%
viability, T/C [34]: 24.7%
viability, T/C [35]: 9.06%
viability, T/C [36]: 2.6%
viability, T/C [37]: 97.1%
viability, T/C [38]: 85.2%
viability, T/C [39]: 40.7%
viability, T/C [40]: 17.5%
viability, T/C [41]: 7.56%
viability, T/C [42]: 2.59%
viability, T/C [43]: 104%
viability, T/C [44]: 82%
viability, T/C [45]: 41.5%
viability, T/C [46]: 19.4%
viability, T/C [47]: 10.1%
viability, T/C [48]: 1.53%
viability, T/C [49]: 95.6%
viability, T/C [50]: 78.7%
viability, T/C [51]: 42.9%
viability, T/C [52]: 17.8%
viability, T/C [53]: 8.22%
viability, T/C [54]: 5.29%
viability, T/C [55]: 75.2%
viability, T/C [56]: 47.6%
viability, T/C [57]: 34.4%
viability, T/C [58]: 16.6%
viability, T/C [59]: 6.54%
viability, T/C [60]: 6.09%
